Consider 34 compounds from patent US8802674B2, “Aminopyrimidine derivatives as LRRK2 modulators” (Genentech, Inc., priority 2011, dated 2014).

The first assay deals with LRRK2 (Homo sapiens (Human), UniProt Q5S007, G2019S). Put plainly: In Vitro LRRK2 LabChip Assay. In kind it is biochemical. The following applies: Table 4. The procedure, abridged: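 Potency (Ki in μM, IC50 or % inhibition) derived from capillary-electrophoresis separation of phospho- and unphosphorylated fluorescent peptide, with Ki fitted by a tight-binding model.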
Chain of LRRK2 (Q5S007 970-2527 G2019S limits assumed): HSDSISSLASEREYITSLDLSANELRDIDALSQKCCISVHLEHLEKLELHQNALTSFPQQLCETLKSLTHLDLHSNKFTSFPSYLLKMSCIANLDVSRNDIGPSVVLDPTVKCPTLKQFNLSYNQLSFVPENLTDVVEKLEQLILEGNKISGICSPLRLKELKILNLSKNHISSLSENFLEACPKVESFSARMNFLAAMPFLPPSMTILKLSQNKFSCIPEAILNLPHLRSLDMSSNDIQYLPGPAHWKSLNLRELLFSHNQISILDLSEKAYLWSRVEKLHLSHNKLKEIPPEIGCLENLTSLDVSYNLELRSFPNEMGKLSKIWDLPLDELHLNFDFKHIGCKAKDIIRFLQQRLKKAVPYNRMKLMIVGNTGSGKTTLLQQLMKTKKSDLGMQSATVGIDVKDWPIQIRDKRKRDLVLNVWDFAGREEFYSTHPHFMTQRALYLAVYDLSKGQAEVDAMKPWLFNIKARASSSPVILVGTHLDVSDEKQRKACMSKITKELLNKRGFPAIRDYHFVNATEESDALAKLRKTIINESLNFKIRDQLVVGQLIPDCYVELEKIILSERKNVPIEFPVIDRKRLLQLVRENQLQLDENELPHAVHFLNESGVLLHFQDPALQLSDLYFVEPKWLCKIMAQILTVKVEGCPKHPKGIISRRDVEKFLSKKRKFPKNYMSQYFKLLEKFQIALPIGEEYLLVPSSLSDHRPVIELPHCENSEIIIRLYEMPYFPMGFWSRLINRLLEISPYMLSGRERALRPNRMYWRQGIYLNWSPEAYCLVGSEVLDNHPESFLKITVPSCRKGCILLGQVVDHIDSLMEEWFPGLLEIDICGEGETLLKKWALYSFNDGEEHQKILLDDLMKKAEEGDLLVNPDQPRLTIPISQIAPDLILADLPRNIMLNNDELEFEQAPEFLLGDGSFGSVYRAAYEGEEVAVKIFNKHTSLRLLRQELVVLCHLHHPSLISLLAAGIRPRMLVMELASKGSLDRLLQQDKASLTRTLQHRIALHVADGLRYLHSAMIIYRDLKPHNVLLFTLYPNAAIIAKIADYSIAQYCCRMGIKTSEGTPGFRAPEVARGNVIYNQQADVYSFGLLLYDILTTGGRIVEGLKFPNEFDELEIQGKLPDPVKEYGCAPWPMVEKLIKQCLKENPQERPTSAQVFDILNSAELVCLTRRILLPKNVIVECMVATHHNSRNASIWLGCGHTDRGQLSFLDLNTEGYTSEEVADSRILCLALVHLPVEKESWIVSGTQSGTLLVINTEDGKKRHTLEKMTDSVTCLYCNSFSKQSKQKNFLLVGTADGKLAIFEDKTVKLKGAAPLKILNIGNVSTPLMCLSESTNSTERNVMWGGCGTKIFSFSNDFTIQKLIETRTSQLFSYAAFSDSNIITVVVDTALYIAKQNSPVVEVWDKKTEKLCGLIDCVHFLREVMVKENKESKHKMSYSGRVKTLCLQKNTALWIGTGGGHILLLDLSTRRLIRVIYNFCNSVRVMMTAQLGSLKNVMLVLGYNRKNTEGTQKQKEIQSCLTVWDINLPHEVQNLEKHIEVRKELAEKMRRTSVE
As usually defined, the Ki is the dissociation constant of the complex between target and ligand, obtained from inhibition or displacement. In turn, `CNc1nc(Nc2cc(OC)c(CC(=O)N3CCOCC3)cc2OC)ncc1C(F)(F)F` [Example 227, 2-[2,5-Dimethoxy-4-(4-methylamino-5-trifluoromethyl-pyrimidin-2-ylamino)-phenyl]-1-morpholin-4-yl-ethanone] came in with a Ki of 3.7 nM. Still for that read-out and setting: in the case of `CNc1nc(Nc2cc(OC)c(C(=O)NCCCN)cc2Cl)ncc1Cl` [Example 228, N-(3-Amino-propyl)-5-chloro-4-(5-chloro-4-methylamino-pyrimidin-2-ylamino)-2-methoxy-benzamide] it was 3.8 nM. Compound `COCCNc1nc(Nc2ccc(C(=O)N3CCOCC3)cc2OC)ncc1Br` [Example 229, {4-[5-Bromo-4-(2-methoxy-ethylamino)-pyrimidin-2-ylamino]-3-methoxy-phenyl}-morpholin-4-yl-methanone] came in with a Ki of 4.1 nM.

Turning to `COc1cc(C(=O)N2CCOCC2)ccc1Nc1ncc(Cl)c(NCC(C)OC)n1` (stereo not shown) [Example 230, {4-[5-Chloro-4-(2-methoxy-propylamino)-pyrimidin-2-ylamino]-3-methoxy-phenyl}-morpholin-4-yl-methanone], affinity was put at a Ki of 9.6 nM. As to `CNc1nc(Nc2ccc(C(=O)N3CCOCC3)cc2C)ncc1Cl` [Example 232, (4-(5-chloro-4-(methylamino)pyrimidin-2-ylamino)-3-methylphenyl) (morpholino) methanone], the Ki is 7.4 nM. Regarding `CNc1nc(Nc2ccc(C(=O)N3CCC(O)CC3)cc2C)ncc1Cl` [Example 233, (4-(5-chloro-4-(methylamino)pyrimidin-2-ylamino)-3-methylphenyl)(4-hydroxypiperidin-1-yl)methanone], the Ki turned out to be 6.1 nM. The compound `CCNc1nc(Nc2ccc(C(=O)N3CCOCC3)cc2OC(F)(F)F)ncc1C(F)(F)F` [Example 234, (4-(4-(ethylamino)-5-(trifluoromethyl)pyrimidin-2-ylamino)-3-(trifluoromethoxy)phenyl)(morpholino) methanone] gave a Ki of 3.2 nM.

For `CNc1nc(Nc2ccc(C(=O)N3CCOCC3)cc2OC(F)(F)F)ncc1C(F)(F)F` [Example 235, (4-(4-(methylamino)-5-(trifluoromethyl)pyrimidin-2-ylamino)-3-(trifluoromethoxy)phenyl)(morpholino) methanone], affinity was put at a Ki of 11.2 nM. On the same count and under the same terms, in the case of `[2H]C1([2H])OC([2H])([2H])C([2H])([2H])N(C(=O)c2cc(Cl)c(Nc3ncc(C(F)(F)F)c(NC)n3)cc2OC)C1([2H])[2H]` [Example 236, (5-chloro-2-methoxy-4-(4-(methylamino)-5-(trifluoromethyl)pyrimidin-2-ylamino)phenyl) (perdeuteromorpholino) methanone] it was 4.2 nM; in that of `CNc1nc(Nc2cc(OC)c(C(=O)N3CCOCC3)cc2F)ncc1C(F)(F)F` [Example 237, (5-fluoro-2-methoxy-4-(4-(methylamino)-5-(trifluoromethyl)pyrimidin-2-ylamino)phenyl) (morpholino)methanone], 4.8 nM; in that of `CCNc1nc(Nc2cc(OC)c(C(=O)N3CCOCC3)cc2F)ncc1C(F)(F)F` [Example 238, (4-(4-(ethylamino)-5-(trifluoromethyl)pyrimidin-2-ylamino)-5-fluoro-2-methoxyphenyl) (morpholino) methanone], 1.4 nM.

Consider `CNc1nc(Nc2cc(F)c(C(=O)N3CCOCC3)cc2OC)ncc1C(F)(F)F` [Example 239, [2-Fluoro-5-methoxy-4-(4-methylamino-5-trifluoromethyl-pyrimidin-2-ylamino)-phenyl]-moipholin-4-yl-methanone], for which the Ki is 2.9 nM.

In the case of `CCNc1nc(Nc2cc(F)c(C(=O)N(C)C)cc2OC)ncc1C#N` [Example 240, 4-(5-Cyano-4-ethylamino-pyrimidin-2-ylamino)-2-fluoro-5-methoxy-N,N-dimethyl-benzamide], the affinity corresponds to a Ki of 9.8 nM.

As for `CCNc1nc(Nc2ccc(C(=O)N3CCOCC3)c(F)c2OC)ncc1C(F)(F)F` [Example 241, (4-(4-(ethylamino)-5-(trifluoromethyl)pyrimidin-2-ylamino)-2-fluoro-3-methoxyphenyl) (morpholino)methanone], the affinity, expressed as Ki, was 1.8 nM. The compound `CCNc1nc(Nc2ccc(C(=O)N3C[C@@H]4C[C@H]3CO4)c(F)c2OC)ncc1C(F)(F)F` [Example 242, (1S,4S)-2-oxa-5-azabicyclo[2.2.1] heptan-5-yl(4-(4-(ethylamino)-5-(trifluoromethyl)pyrimidin-2-ylamino)-2-fluoro-3-methoxyphenyl) methanone] showed a Ki of 2.8 nM.

In turn, `CNc1nc(Nc2ccc(C(=O)N3C[C@H](F)[C@@H](F)C3)cc2OC)ncc1C#N` [Example 245, 2-(4-((3S,4S)-3,4-difluoropyrrolidine-1-carbonyl)-2-methoxyphenylamino)-4-(methylamino) pyrimidine-5-carbonitrile] gave a Ki of 13.5 nM. Take `CNc1nc(Nc2cc(OC)c(C(=O)N3CCC(OC)C3)cc2Cl)ncc1C(F)(F)F` (stereo not shown) [Example 246, (5-chloro-2-methoxy-4-(4-(methylamino)-5-(trifluoromethyl)pyrimidin-2-ylammo)phenyl)(3-methoxypyrrolidin-1-yl)methanone]: the affinity, expressed as Ki, was 5 nM.

`CNc1nc(Nc2cc(F)c(C(=O)N3CCC(OC)C3)cc2OC)ncc1C(F)(F)F` (stereo not shown) [Example 247, (2-fluoro-5-methoxy-4-(4-(methylamino)-5-(trifluoromethyl)pyrimidin-2-ylamino)phenyl)(3-methoxypyrrolidin-1-yl)methanone] displayed a Ki of 2.7 nM. Consider `CNc1nc(Nc2cc(F)c(C(=O)N(C)CC(C)(C)O)cc2OC)ncc1C(F)(F)F` [Example 248, 2-fluoro-N-(2-hydroxy-2-methylpropyl)-5-methoxy-N-methyl-4-(4-(methylamino)-5-(trifluoromethyl)pyrimidin-2-ylamino)benzamide], for which affinity was put at a Ki of 9.2 nM. Still for that read-out and setting: in the case of `CNc1nc(Nc2cc(F)c(C(=O)N3C[C@@H](C)O[C@@H](C)C3)cc2OC)ncc1C(F)(F)F` [Example 249, ((2S,6R)-2,6-dimethylmorpholino) (2-fluoro-5-methoxy-4-(4-(methylamino)-5-(trifluoromethyl)pyrimidin-2-ylamino)phenyl) methanone] it was 8 nM; in that of `CCNc1nc(Nc2ccc(C(=O)N3CCOCC3)cc2OC(C)C)ncc1C(F)(F)F` [Example 252, (4-(4-(ethylamino)-5-(trifluoromethyl)pyrimidin-2-ylamino)-3-isopropoxyphenyl) (morpholino) methanone], 4.5 nM. On to `COc1cc(C(=O)N2CCOCC2)ccc1Nc1ncc(Cl)c(N2CCCCC2)n1` [Example 254, (4-(5-chloro-4-(piperidin-1-yl)pyrimidin-2-ylamino)-3-methoxyphenyl) (morpholino) methanone], for which the affinity corresponds to a Ki of 12.1 nM. Same read-out and setting: in the case of `COc1cc(C(=O)N2CCOCC2)ccc1Nc1ncc(Cl)c(N2CCCC2)n1` [Example 255, (4-(5-chloro-4-(pyrrolidin-1-yl)pyrimidin-2-ylamino)-3-methoxyphenyl) (morpholino) methanone] it was 17.9 nM.

Staying with this assay, now noted: Table 5.
`CCNc1nc(Nc2cc(F)c(C(=O)N3CCOCC3)cc2OC)ncc1C(F)(F)F` [Example 256, [4-(4-Ethylamino-5-trifluoromethyl-pyrimidin-2-ylamino)-2-fluoro-5-methoxy-phenyl]-morpholin-4-yl-methanone]: the Ki was 2 nM.

`CCNc1nc(Nc2ccc(C(=O)N3CCOCC3)cc2OC)ncc1C(F)(F)F` [Example 257] yielded a Ki of 2 nM. `CCNc1nc(Nc2cc(OC)c(C(=O)N3CCOCC3)cc2Cl)ncc1Cl` [Example 258, [5-Chloro-4-(5-chloro-4-ethylamino-pyrimidin-2-ylamino)-2-methoxy-phenyl]-morpholin-4-yl-methanone]: affinity was put at a Ki of 5 nM. Still for that read-out and setting: in the case of `COc1cc(Nc2ncc(Cl)c(OC)n2)c(Cl)cc1C(=O)N1CCOCC1` [Example 260, [5-Chloro-4-(5-chloro-4-methoxy-pyrimidin-2-ylamino)-2-methoxy-phenyl]-morpholin-4-yl-methanone] it was 47 nM. On to `COc1nc(Nc2ccc(C(=O)N3CCOCC3)cc2Cl)ncc1Cl` [Example 261, [3-Chloro-4-(5-chloro-4-methoxy-pyrimidin-2-ylamino)-phenyl]-morpholin-4-yl-methanone], for which the affinity corresponds to a Ki of 47 nM. Consider `COc1cc(C(=O)N2CCOCC2)c(Cl)cc1Nc1ncc(C(F)(F)F)c(OC)n1` [Example 262, [2-Chloro-5-methoxy-4-(4-methoxy-5-trifluoromethyl-pyrimidin-2-ylamino)-phenyl]-morpholin-4-yl-methanone], for which affinity was put at a Ki of 24 nM. In turn, `COc1cc(C(=O)N2CCOCC2)ccc1Nc1ncc(C(F)(F)F)c(OC)n1` [Example 263, [3-Methoxy-4-(4-methoxy-5-trifluoromethyl-pyrimidin-2-ylamino)-phenyl]-morpholin-4-yl-methanone] yielded a Ki of 20 nM. Take `COc1cc(C(=O)N2CCOCC2)ccc1Nc1ncc(Cl)c(OC2CCOCC2)n1` [Example 264, {4-[5-Chloro-4-(tetrahydro-pyran-4-yloxy)-pyrimidin-2-ylamino]-3-methoxy-phenyl}-morpholin-4-yl-methanone]: the Ki was 33 nM.

Staying with this assay, now noted: Table 6.
On to `CNc1nc(Nc2cc(OC)c(C(=O)NC3(C#N)CC3)cc2Cl)ncc1C(F)(F)F` [Example 265, 5-Chloro-N-(1-cyano-cyclopropyl)-2-methoxy-4-(4-methylamino-5-trifluoromethyl-pyrimidin-2-ylamino)-benzamide], for which the affinity corresponds to a Ki of 4.2 nM.

For `CNc1nc(Nc2cc(OC)c(C(=O)N3CC(C)OC(C)C3)cc2Cl)ncc1C(F)(F)F` (stereo not shown) [Example 267, [5-Chloro-2-methoxy-4-(4-methylamino-5-trifluoromethyl-pyrimidin-2-ylamino)-phenyl]-(2,6-dimethyl-morpholin-4-yl)-methanone], the Ki was found to be 8 nM. `COc1cc(C(=O)N2CCOCC2)ccc1Nc1ncc(C(F)(F)F)c(N2CCCC2)n1` [Example 268, [3-Methoxy-4-(4-pyrrolidin-1-yl-5-trifluoromethyl-pyrimidin-2-ylamino)-phenyl]-morpholin-4-yl-methanone]: affinity was put at a Ki of 19 nM.
